Patent publication US20220073553A1, “METHOD FOR EXTRACTING HIGH-PURITY POLYDEOXYRIBONUCLEOTIDE FROM SALMON TESTES” (Bio Medi pharm Co. Ltd., priority 2020, published 2022)
Values joined by “and” are separate entries in the source; they are usually repeats but may differ in a detail not shown here. Identical values can stand only once. No end group written: not given here.

System: sperm from regions of salmon testes
Assay: Motility of sperm from regions of salmon testes after hormone treatment
Assay type: cell-based
Conditions: regions C of testes of male salmon caught in a river in October; treated with different types of hormones
Method: The immature testicular regions A, B, and C are ground and diluted with an artificial seminal plasma. The grinding is performed by the following procedure. First, the testes are cut into small pieces with scissors such that the membranes surrounding the spermatids of the testes are peeled off. […] Here, care should be taken because a high speed of the impeller causes cell disruption, increasing the possibility that impurities may increase. Immature regions (except for regions D where semen leaks out, see FIG. 4) were collected by cutting the testes of male salmon. […] Regions C of the testes of male salmon caught in a river in October were treated with three different types of hormones: hGC, luteinizing hormone-releasing hormone (LhRH), and DHP.

luteinizing hormone-releasing hormone (QHWSYGLRPG; ends and bridges not checked; UniProt P01148 24-33, looked up) [LhRH, hormone used for comparison with hCG]
Sperm motility (%): 5% and 5 ± 2.8%
